ChEMBL document CHEMBL5512682, “Discovery of BMS-986308: A Renal Outer Medullary Potassium Channel Inhibitor for the Treatment of Heart Failure” (J Med Chem, 2024)
Values after ≈ are worked out from the molar mass of the structure shown.

Assays:
[1] = Solubility of compound at pH 1.1; format: physicochemical; settings: buffer
[2] = Permeability of compound from apical to basolateral side in human Caco-2 cells; format: ADME, cell-based; settings: read-out: permeability
[3] = AUC (0 to t) in dog at 5 mg/kg, po; format: ADME, organism-based, Canis lupus familiaris; settings: in vivo
[4] = Volume of distribution at steady state in dog at 2 mg/kg, iv; format: ADME, organism-based, Canis lupus familiaris; settings: in vivo, read-out: Vdss
[5] = Permeability of compound from basolateral to apical side in human Caco-2 cells; format: ADME, cell-based
[6] = Metabolic stability in human liver microsomes assessed as parent compound remaining at 10 uM measured after 10 mins in presence of NADPH and GSH by UPLC-MS/MS analysis; format: ADME, Microsome; settings: read-out: Stability
CYP2B6 = CYP2B6 (Homo sapiens, UniProt P20813); assay: Induction of CYP2B6 (unknown origin); format: ADME
[7] = Cmax in mouse at 2 mg/kg, po; format: ADME, organism-based; settings: in vivo
[8] = MRT in male Sprague-Dawley rat at 2 mg/kg, iv measured after 24 hrs by LC-MS/MS analysis; format: ADME, organism-based; settings: in vivo
[9] = Half-life in dog at 2 mg/kg, iv; format: ADME, organism-based, Canis lupus familiaris; settings: in vivo
Cytochrome P450 2C9 = Cytochrome P450 2C9 (Homo sapiens, UniProt P11712); assay: Inhibition of CYP2C9 in human liver microsomes; format: ADME, Microsome
[10] = Protein binding in Cynomolgus monkey plasma assessed as unbound fraction; format: ADME, cell-free, Macaca fascicularis
[11] = biological target: ATP-binding cassette sub-family C member 2 (Homo sapiens, UniProt Q92887); assay: Inhibition of MRP2 (unknown origin)
[12] = Tmax in male Sprague-Dawley rat at 5 mg/kg, po measured after 24 hrs by LC-MS/MS analysis; format: ADME, organism-based; settings: in vivo
Cytochrome P450 1A2 = Cytochrome P450 1A2 (Homo sapiens, UniProt P05177); assay: Inhibition of CYP1A2 in human liver microsomes; format: ADME, Microsome
[13] = Glutathione reactivity in human liver microsomes assessed as GSH-adduct formation at 10 uM incubated for 60 mins in presence of NADPH and GSH by HPLC-MS analysis; format: ADME, Microsome; settings: 1 h
[14] = Volume of distribution at steady state in male Sprague-Dawley rat at 2 mg/kg, iv measured after 24 hrs by LC-MS/MS analysis; format: ADME, organism-based; settings: in vivo, read-out: Vdss
[15] = MRT in dog at 2 mg/kg, iv; format: ADME, organism-based, Canis lupus familiaris; settings: in vivo
[16] = Volume of distribution at steady state in mouse at 2 mg/kg, iv; format: ADME, organism-based; settings: in vivo, read-out: Vdss
[17] = biological target: Solute carrier organic anion transporter family member 1B1 (Homo sapiens, UniProt Q9Y6L6); assay: Inhibition of OATP1B1 (unknown origin)
[18] = biological target: Inward rectifier potassium channel 13 (Homo sapiens, UniProt O60928); assay: Inhibition of Kir 7.1 (unknown origin)
[19] = Oral bioavailability in dog at 5 mg/kg; format: ADME, organism-based, Canis lupus familiaris; settings: in vivo
[20] = Cmax in male Sprague-Dawley rat at 5 mg/kg, po measured after 24 hrs by LC-MS/MS analysis; format: ADME, organism-based; settings: in vivo
[21] = biological target: Inward rectifier potassium channel 2 (Homo sapiens, UniProt P63252); assay: Inhibition of Kir 2.1 (unknown origin)
[22] = biological target: Solute carrier organic anion transporter family member 1B3 (Homo sapiens, UniProt Q9NPD5); assay: Inhibition of OATP1B3 (unknown origin)
[23] = biological target: Solute carrier family 22 member 6 (Homo sapiens, UniProt Q4U2R8); assay: Inhibition of OAT1 (unknown origin)
[24] = MRT in Cynomolgus monkey at 2 mg/kg, iv; format: ADME, organism-based, Macaca fascicularis; settings: in vivo
[25] = biological target: Inward rectifier potassium channel 4 (Homo sapiens, UniProt P48050); assay: Inhibition of Kir 2.3 (unknown origin)
[26] = Protein binding in human plasma assessed as unbound fraction; format: ADME, cell-free
[27] = Tmax in dog at 5 mg/kg, po; format: ADME, organism-based, Canis lupus familiaris; settings: in vivo
Cytochrome P450 3A4 [28] = biological target: T1, Cytochrome P450 3A4 (Homo sapiens, UniProt P08684); assay: Inhibition of CYP3A4 in human liver microsomes using testosterone as substrate; format: ADME, Microsome
Cytochrome P450 3A4 [29] = biological target: T1, Cytochrome P450 3A4; assay: Inhibition of CYP3A4 in human liver microsomes using midazolam as substrate; format: ADME, Microsome
[30] = biological target: Broad substrate specificity ATP-binding cassette transporter ABCG2 (Homo sapiens, UniProt Q9UNQ0); assay: Inhibition of BCRP (unknown origin)
[31] = Oral bioavailability in Cynomolgus monkey at 5 mg/kg; format: ADME, organism-based, Macaca fascicularis; settings: in vivo
[32] = Half-life in mouse at 2 mg/kg, iv; format: ADME, organism-based; settings: in vivo
[33] = biological target: Nuclear receptor subfamily 1 group I member 2 (Homo sapiens, UniProt O75469); assay: Activation of PXR (unknown origin)
[34] = AUC (0 to t) in male Sprague-Dawley rat at 5 mg/kg, po measured after 24 hrs by LC-MS/MS analysis; format: ADME, organism-based; settings: in vivo
[35] = Cmax in dog at 5 mg/kg, po; format: ADME, organism-based, Canis lupus familiaris; settings: in vivo
[36] = Solubility of compound at pH 7.4; format: physicochemical; settings: buffer
[37] = Protein binding in mouse plasma assessed as unbound fraction; format: ADME, cell-free
[38] = biological target: Hepatic sodium/bile acid cotransporter (Homo sapiens, UniProt Q14973); assay: Inhibition of NTCP (unknown origin)
[39] = Metabolic stability in rat liver microsomes assessed as parent compound remaining at 10 uM measured after 10 mins in presence of NADPH and GSH by UPLC-MS/MS analysis; format: ADME, Microsome; settings: read-out: Stability
CYP1A2 = CYP1A2 (Homo sapiens, UniProt P05177); assay: Induction of CYP1A2 (unknown origin); format: ADME
[40] = AUC (0 to t) in mouse at 2 mg/kg, po; format: ADME, organism-based; settings: in vivo
[41] = Oral bioavailability in male Sprague-Dawley rat at 5 mg/kg measured after 24 hrs by LC-MS/MS analysis; format: ADME, organism-based; settings: in vivo
[42] = biological target: Multidrug and toxin extrusion protein 1 (Homo sapiens, UniProt Q96FL8); assay: Inhibition of MATE1 (unknown origin)
[43] = Protein binding in rat plasma assessed as unbound fraction; format: ADME, cell-free
[44] = Tmax in mouse at 2 mg/kg, po; format: ADME, organism-based; settings: in vivo
[45] = biological target: ATP-sensitive inward rectifier potassium channel 10 (Homo sapiens, UniProt P78508); assay: Inhibition of Kir 4.1 (unknown origin)
[46] = Cytotoxicity against human HepG2 cells; format: toxicity, cell-based
[47] = Cmax in Cynomolgus monkey at 5 mg/kg, po; format: ADME, organism-based, Macaca fascicularis; settings: in vivo
[48] = Protein binding in dog plasma assessed as unbound fraction; format: ADME, cell-free, Canis lupus familiaris
Cytochrome P450 2B6 = Cytochrome P450 2B6 (Homo sapiens, UniProt P20813); assay: Inhibition of CYP2B6 in human liver microsomes; format: ADME, Microsome
Bile salt export pump = Bile salt export pump (Homo sapiens, UniProt O95342); assay: Inhibition of BSEP (unknown origin)
Cytochrome P450 2D6 = Cytochrome P450 2D6 (Homo sapiens, UniProt P10635); assay: Inhibition of CYP2D6 in human liver microsomes; format: ADME, Microsome
[49] = Volume of distribution at steady state in Cynomolgus monkey at 2 mg/kg, iv; format: ADME, organism-based, Macaca fascicularis; settings: in vivo, read-out: Vdss
[50] = MRT in mouse at 2 mg/kg, iv; format: ADME, organism-based; settings: in vivo
Cytochrome P450 2C8 = Cytochrome P450 2C8 (Homo sapiens, UniProt P10632); assay: Inhibition of CYP2C8 in human liver microsomes; format: ADME, Microsome
Cytochrome P450 2C19 = Cytochrome P450 2C19 (Homo sapiens, UniProt P33261); assay: Inhibition of CYP2C19 in human liver microsomes; format: ADME, Microsome
[51] = biological target: Organic anion transporter 3 (Homo sapiens, UniProt Q8TCC7); assay: Inhibition of OAT3 (unknown origin)
[52] = Oral bioavailability in mouse at 5 mg/kg; format: ADME, organism-based; settings: in vivo
[53] = Half-life in male Sprague-Dawley rat at 2 mg/kg, iv measured after 24 hrs by LC-MS/MS analysis; format: ADME, organism-based; settings: in vivo
[54] = Tmax in Cynomolgus monkey at 5 mg/kg, po; format: ADME, organism-based, Macaca fascicularis; settings: in vivo
[55] = AUC (0 to t) in Cynomolgus monkey at 5 mg/kg, po; format: ADME, organism-based, Macaca fascicularis; settings: in vivo
CYP3A4 = CYP3A4 (Homo sapiens, UniProt P08684); assay: Induction of CYP3A4 (unknown origin); format: ADME
[56] = Half-life in Cynomolgus monkey at 2 mg/kg, iv; format: ADME, organism-based, Macaca fascicularis; settings: in vivo

T1 sequence (P08684 whole entry): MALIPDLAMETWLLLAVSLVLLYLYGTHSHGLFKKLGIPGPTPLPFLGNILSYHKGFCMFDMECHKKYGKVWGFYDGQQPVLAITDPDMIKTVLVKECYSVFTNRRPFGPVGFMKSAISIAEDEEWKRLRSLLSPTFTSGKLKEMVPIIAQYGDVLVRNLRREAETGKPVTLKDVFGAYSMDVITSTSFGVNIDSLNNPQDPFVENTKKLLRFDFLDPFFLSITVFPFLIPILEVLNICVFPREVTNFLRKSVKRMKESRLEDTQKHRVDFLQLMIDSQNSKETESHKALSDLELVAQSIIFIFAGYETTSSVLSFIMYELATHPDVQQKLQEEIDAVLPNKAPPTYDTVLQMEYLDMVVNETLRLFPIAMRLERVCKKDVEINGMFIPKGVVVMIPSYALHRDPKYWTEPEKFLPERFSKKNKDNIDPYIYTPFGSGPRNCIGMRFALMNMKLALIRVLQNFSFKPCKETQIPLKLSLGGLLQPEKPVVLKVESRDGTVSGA
Sequence of Solute carrier family 22 member 6 (Q4U2R8 whole entry): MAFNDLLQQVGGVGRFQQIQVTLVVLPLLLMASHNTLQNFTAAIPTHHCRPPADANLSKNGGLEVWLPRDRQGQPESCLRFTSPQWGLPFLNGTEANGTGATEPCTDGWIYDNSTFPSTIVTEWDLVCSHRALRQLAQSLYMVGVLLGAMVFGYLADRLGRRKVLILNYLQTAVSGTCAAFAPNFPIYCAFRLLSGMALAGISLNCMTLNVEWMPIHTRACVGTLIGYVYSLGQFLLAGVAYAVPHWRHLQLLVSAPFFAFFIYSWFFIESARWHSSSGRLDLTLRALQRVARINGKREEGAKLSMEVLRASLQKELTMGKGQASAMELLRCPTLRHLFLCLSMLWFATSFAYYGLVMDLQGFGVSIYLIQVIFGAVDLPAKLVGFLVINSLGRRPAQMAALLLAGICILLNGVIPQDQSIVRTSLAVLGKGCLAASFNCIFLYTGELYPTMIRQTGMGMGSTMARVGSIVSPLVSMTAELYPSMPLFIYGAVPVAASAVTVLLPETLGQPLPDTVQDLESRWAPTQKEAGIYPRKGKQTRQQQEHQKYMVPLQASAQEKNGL
Sequence of Multidrug and toxin extrusion protein 1 (Q96FL8 whole entry): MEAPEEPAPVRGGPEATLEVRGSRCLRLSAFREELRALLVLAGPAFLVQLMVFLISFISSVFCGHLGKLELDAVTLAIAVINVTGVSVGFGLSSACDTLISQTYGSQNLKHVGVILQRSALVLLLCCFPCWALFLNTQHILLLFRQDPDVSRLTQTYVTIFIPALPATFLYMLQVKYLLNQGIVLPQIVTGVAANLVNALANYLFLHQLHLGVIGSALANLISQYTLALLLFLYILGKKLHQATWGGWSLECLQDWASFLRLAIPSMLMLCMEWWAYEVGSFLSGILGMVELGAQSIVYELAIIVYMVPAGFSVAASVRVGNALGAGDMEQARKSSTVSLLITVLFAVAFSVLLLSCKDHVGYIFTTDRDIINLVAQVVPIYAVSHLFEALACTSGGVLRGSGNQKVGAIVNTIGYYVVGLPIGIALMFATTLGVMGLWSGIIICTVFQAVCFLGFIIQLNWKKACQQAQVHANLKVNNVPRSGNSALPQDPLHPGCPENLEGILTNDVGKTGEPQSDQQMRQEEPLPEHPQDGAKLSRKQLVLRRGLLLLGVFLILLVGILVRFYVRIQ
Sequence of Inward rectifier potassium channel 2 (P63252 whole entry): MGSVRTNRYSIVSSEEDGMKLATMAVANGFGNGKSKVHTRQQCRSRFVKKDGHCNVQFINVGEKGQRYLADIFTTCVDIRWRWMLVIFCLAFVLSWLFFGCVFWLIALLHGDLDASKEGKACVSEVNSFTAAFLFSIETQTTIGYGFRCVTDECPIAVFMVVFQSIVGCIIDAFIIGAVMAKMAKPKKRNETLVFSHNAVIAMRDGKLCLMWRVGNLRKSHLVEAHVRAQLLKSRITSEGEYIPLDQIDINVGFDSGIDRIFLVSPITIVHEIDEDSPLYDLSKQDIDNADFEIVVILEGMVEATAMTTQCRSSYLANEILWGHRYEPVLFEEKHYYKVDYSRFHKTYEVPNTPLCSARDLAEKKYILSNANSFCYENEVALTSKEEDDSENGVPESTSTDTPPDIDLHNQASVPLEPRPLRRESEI
Sequence of Hepatic sodium/bile acid cotransporter (Q14973 whole entry): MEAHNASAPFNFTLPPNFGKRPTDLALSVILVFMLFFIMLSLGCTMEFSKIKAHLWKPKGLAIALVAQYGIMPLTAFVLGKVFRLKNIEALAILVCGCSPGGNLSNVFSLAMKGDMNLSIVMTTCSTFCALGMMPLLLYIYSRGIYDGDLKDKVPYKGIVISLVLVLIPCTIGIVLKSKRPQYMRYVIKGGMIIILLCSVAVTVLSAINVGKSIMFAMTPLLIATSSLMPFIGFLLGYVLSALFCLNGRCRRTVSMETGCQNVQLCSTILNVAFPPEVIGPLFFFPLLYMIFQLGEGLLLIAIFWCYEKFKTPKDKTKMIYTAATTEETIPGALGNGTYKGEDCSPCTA
Sequence of CYP1A2 (P05177 whole entry): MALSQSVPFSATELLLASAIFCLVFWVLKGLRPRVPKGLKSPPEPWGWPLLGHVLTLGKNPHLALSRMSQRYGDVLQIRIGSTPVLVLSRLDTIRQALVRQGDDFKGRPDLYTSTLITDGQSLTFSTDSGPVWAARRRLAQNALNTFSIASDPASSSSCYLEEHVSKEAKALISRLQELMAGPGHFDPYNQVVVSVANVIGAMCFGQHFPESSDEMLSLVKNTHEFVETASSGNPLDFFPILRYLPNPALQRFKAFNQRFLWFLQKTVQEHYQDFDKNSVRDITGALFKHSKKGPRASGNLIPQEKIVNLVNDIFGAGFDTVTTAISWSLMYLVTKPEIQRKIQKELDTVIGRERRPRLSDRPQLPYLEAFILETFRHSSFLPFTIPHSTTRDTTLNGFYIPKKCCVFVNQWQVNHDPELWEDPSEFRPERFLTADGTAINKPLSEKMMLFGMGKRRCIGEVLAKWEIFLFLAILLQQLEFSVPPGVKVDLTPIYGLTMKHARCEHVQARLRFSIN
Sequence of Cytochrome P450 1A2 (P05177 whole entry): as above
Sequence of ATP-sensitive inward rectifier potassium channel 10 (P78508 whole entry): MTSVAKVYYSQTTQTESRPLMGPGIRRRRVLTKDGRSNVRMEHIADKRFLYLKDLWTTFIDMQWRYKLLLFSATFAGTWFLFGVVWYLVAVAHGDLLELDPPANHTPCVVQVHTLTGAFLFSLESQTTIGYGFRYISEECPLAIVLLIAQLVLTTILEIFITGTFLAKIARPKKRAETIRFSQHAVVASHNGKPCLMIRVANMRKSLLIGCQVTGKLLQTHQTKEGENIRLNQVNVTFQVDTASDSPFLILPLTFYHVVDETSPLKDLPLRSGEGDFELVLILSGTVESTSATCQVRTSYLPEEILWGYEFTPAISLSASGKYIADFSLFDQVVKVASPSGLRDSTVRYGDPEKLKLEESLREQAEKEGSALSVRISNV
Sequence of Cytochrome P450 2C19 (P33261 whole entry): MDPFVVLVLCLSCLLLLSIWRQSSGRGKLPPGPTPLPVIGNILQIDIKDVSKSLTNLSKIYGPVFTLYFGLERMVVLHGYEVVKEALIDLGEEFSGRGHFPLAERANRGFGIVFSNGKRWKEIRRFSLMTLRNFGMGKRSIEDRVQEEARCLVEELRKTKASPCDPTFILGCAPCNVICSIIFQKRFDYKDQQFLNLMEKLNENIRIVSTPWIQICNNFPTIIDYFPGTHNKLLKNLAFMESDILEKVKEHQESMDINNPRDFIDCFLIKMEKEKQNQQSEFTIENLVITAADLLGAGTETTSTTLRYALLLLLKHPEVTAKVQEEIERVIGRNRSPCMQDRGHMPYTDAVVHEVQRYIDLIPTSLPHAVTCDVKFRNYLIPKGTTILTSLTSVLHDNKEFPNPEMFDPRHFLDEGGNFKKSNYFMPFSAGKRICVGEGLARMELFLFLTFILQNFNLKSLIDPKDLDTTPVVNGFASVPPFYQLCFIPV
Sequence of Inward rectifier potassium channel 4 (P48050 whole entry): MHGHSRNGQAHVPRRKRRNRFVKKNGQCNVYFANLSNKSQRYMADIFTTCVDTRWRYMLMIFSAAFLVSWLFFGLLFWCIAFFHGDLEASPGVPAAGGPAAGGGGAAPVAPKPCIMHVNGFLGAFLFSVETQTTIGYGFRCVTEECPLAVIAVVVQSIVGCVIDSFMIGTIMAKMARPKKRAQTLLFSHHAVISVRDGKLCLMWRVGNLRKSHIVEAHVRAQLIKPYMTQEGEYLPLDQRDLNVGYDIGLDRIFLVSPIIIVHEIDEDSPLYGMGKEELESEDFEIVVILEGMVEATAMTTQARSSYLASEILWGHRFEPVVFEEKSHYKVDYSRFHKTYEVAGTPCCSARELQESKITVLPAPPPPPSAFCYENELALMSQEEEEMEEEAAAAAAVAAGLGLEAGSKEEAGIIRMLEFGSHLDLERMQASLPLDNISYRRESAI
Sequence of Organic anion transporter 3 (Q8TCC7 whole entry): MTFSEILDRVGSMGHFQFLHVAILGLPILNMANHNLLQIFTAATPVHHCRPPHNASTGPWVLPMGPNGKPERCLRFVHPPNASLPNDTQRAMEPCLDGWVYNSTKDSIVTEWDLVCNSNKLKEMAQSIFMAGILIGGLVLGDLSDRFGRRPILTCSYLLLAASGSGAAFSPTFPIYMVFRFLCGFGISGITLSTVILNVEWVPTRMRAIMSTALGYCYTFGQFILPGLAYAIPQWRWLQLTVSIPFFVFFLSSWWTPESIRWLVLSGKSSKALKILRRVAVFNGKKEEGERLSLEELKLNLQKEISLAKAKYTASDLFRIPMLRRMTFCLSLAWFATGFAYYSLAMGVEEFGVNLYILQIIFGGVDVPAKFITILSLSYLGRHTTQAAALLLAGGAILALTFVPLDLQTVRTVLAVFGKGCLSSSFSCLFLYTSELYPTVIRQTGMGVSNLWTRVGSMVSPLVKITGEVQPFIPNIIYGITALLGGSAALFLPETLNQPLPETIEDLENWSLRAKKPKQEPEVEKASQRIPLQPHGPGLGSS
Sequence of CYP3A4 (P08684 whole entry): as the sequence (P08684 whole entry) above

## Cc1cc(-n2ncc(CN3C[C@@H](c4ccc5c(c4C)COC5=O)N[C@@H](C)C3)n2)ncc1C#N
[1]
  solubility: 14000 µg/mL (≈ 31.6 mM)
[2]
  Papp A→B: 110 ×10⁻⁶ cm/s
[3]
  AUC(0-t): 5.7 µM·h
[4]
  Vd: 1.7 L/kg
[5]
  permeability: 570 10^-6 cm/s
[6]
  remaining at 10 min, 10 µM: 90%
CYP2B6
  IC50: > 40 µM
[7]
  Cmax: 2800 nM
[8]
  MRT: 5.8 h
[9]
  half-life: 3.3 h
Cytochrome P450 2C9
  IC50: > 40 µM
[10]
  PPB: 74%
[11]
  IC50: > 18 µM
[12]
  Tmax: 0.8 h
Cytochrome P450 1A2
  IC50: > 40 µM
[13]
  Activity: Not Active
[14]
  Vd: 2.8 L/kg
[15]
  MRT: 1.7 h
[16]
  Vd: 2.6 L/kg
[17]
  IC50: > 18 µM
[18]
  IC50: > 10 µM
[19]
  bioavailability: 48%
[20]
  Cmax: 3800 nM
[21]
  IC50: > 10 µM
[22]
  IC50: > 18 µM
[23]
  IC50: > 18 µM
[24]
  MRT: 3.6 h
[25]
  IC50: > 10 µM
[26]
  PPB: 52%
[27]
  Tmax: 0.8 h
Cytochrome P450 3A4 [28]
  IC50: > 40 µM
Cytochrome P450 3A4 [29]
  IC50: > 40 µM
[30]
  IC50: > 18 µM
[31]
  bioavailability: 69%
[32]
  half-life: 2.8 h
[33]
  EC50: > 50 µM
[34]
  AUC(0-t) at 24 h: 18 µM·h
[35]
  Cmax: 1900 nM
[36]
  solubility: 30 µg/mL (≈ 0.0676 mM)
[37]
  PPB: 83%
[38]
  IC50: > 18 µM
[39]
  remaining at 10 min, 10 µM: 92%
CYP1A2
  IC50: > 40 µM
[40]
  AUC(0-t): 14 µM·h
[41]
  bioavailability: 76%
[42]
  IC50: 2.7 µM
[43]
  PPB: 68%
[44]
  Tmax: 0.25 h
[45]
  IC50: > 10 µM
[46]
  IC50: > 100 µM
[47]
  Cmax: 1000 nM
[48]
  PPB: 76%
Cytochrome P450 2B6
  IC50: > 40 µM
Bile salt export pump
  IC50: 7 µM
Cytochrome P450 2D6
  IC50: > 40 µM
[49]
  Vd: 5.1 L/kg
[50]
  MRT: 4 h
Cytochrome P450 2C8
  IC50: > 40 µM
Cytochrome P450 2C19
  IC50: > 40 µM
[51]
  IC50: > 18 µM
[52]
  bioavailability: 83%
[53]
  half-life: 4.8 h
[54]
  Tmax: 2 h
[55]
  AUC(0-t): 5.5 µM·h
CYP3A4
  IC50: > 40 µM
[56]
  half-life: 4.2 h
